Drawing on PubChem BioAssay (NCI), this text covers TGI and GI50 for 10 molecules.

Several values for one entry are separate records, joined by “and”; a condition that tells them apart may be missing. Identical values can stand only once.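 In this assay, cells in 96-well plates receive the compound at five concentrations for 48 hours. Endpoints are linearly interpolated between the surrounding concentrations. GI50: concentration for 50% inhibition of growth. TGI: total growth inhibition.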

Among the test systems are A549 NSCLC; CAKI-1 renal; EKVX NSCLC; HCT-116 colon; HOP-62 NSCLC; IGROV1 ovarian; KM12 colon; MALME-3M melanoma; OVCAR-3 ovarian; OVCAR-4 ovarian; OVCAR-8 ovarian; RPMI-8226 leukemia; SK-MEL-2 melanoma; SK-MEL-5 melanoma; M19-MEL melanoma.
Holding throughout (assay): NCI anticancer screen, dose series, 48 h

For `COC(=O)CCC(C)C1CCC2C3CCC4CC5CCC4(C)C3(O5)C(Br)C(Br)C12C` (configuration not stated), the TGI with A549 NSCLC, in the test on CAKI-1 renal, in the test with EKVX NSCLC, in the test on HCT-116 colon, in the test with HOP-62 NSCLC and with IGROV1 ovarian was above 100 µM each time. Further, the TGI in the test with KM12 colon, in the test on MALME-3M melanoma, in the test on OVCAR-3 ovarian, with OVCAR-4 ovarian, in the test on OVCAR-8 ovarian and with RPMI-8226 leukemia was above 100 µM throughout. The TGI in the test with SK-MEL-2 melanoma and in the test on SK-MEL-5 melanoma was above 100 µM each time.
Take `O=C1CCc2cc3c(cc21)CC1(Cc2cc4c(cc2C1)CCCC4)C3`: the TGI with A549 NSCLC, in the test on EKVX NSCLC, in the test with HCT-116 colon, in the test with HOP-62 NSCLC, with IGROV1 ovarian and in the test on KM12 colon was above 100 µM each time. Also, the TGI with MALME-3M melanoma, with OVCAR-3 ovarian, in the test on OVCAR-4 ovarian, in the test with OVCAR-8 ovarian, in the test with RPMI-8226 leukemia and in the test on SK-MEL-2 melanoma was above 100 µM throughout. The molecule further gave a TGI with SK-MEL-5 melanoma above 100 µM.
Consider `CCOC(=O)/C=C/c1c[nH]c(C(=O)OCC)c1`, for which the TGI with A549 NSCLC, in the test with CAKI-1 renal, in the test on EKVX NSCLC, with HCT-116 colon, with HOP-62 NSCLC and with IGROV1 ovarian was above 100 µM in each case. For the same molecule, the TGI in the test with KM12 colon, in the test with M19-MEL melanoma, with MALME-3M melanoma, with OVCAR-3 ovarian, with OVCAR-4 ovarian and in the test with OVCAR-8 ovarian was above 100 µM throughout. In addition, the TGI in the test on RPMI-8226 leukemia, in the test on SK-MEL-2 melanoma and with SK-MEL-5 melanoma was above 100 µM each time.
As for `CC(=O)c1cccc(NC(=O)C(=O)C(C(=O)c2ccccc2F)C2OC(=O)c3ccccc32)c1` (configuration not stated), the TGI is above 100 µM with A549 NSCLC; above 100 µM with CAKI-1 renal; above 100 µM with EKVX NSCLC; 88.6 µM in the test on HCT-116 colon; above 100 µM with HOP-62 NSCLC; above 100 µM in the test on IGROV1 ovarian. Besides, the TGI with KM12 colon was above 100 µM; in the test with M19-MEL melanoma, above 100 µM; in the test with OVCAR-4 ovarian, above 100 µM; in the test with OVCAR-8 ovarian, above 100 µM; in the test on RPMI-8226 leukemia it was 87.9 µM; in the test on SK-MEL-2 melanoma it was 96.1 µM. The molecule also gave a TGI with SK-MEL-5 melanoma above 100 µM.
Take `CC(C)CCCC(C)[C@H]1CC[C@H]2[C@@H]3CC[C@H]4C[C@@H](CCC=C(c5cc(Cl)c(O)c(C(=O)O)c5)c5cc(Cl)c(O)c(C(=O)O)c5)CC[C@]4(C)[C@H]3CC[C@]12C` (some centres not stated) (tested in a mixture with another compound): the TGI in the test on A549 NSCLC, with CAKI-1 renal, with EKVX NSCLC, in the test with HCT-116 colon, in the test with HOP-62 NSCLC and in the test on IGROV1 ovarian was above 50 µM in each case. Moreover, the TGI with KM12 colon, with MALME-3M melanoma, in the test on OVCAR-3 ovarian, with OVCAR-4 ovarian, in the test on OVCAR-8 ovarian and in the test with RPMI-8226 leukemia was above 50 µM in each case. The TGI in the test on SK-MEL-2 melanoma and in the test on SK-MEL-5 melanoma was above 50 µM throughout.
With `Nc1nc(Cl)cc(NCCCCCCCCCCCCNc2cc(Cl)nc(N)n2)n1`, the TGI in the test with A549 NSCLC is above 100 µM; in the test with EKVX NSCLC, above 100 µM; in the test with HCT-116 colon, above 100 µM; with HOP-62 NSCLC, 35.2 µM; in the test on IGROV1 ovarian it was above 100 µM; with KM12 colon, above 100 µM. In addition, the TGI with M19-MEL melanoma was above 100 µM; in the test on MALME-3M melanoma it was above 100 µM; with OVCAR-3 ovarian, above 100 µM; in the test on OVCAR-4 ovarian, 75.2 µM; in the test with OVCAR-8 ovarian, 44 µM; in the test on RPMI-8226 leukemia, above 100 µM. Further, the TGI was above 100 µM in the test with SK-MEL-2 melanoma and 3.72 µM in the test on SK-MEL-5 melanoma.
As to `CC[C@](C)(O)C(=O)O[C@H]1C(=O)O[C@@H]2C[C@H]3C(C)=C[C@H](O)[C@@H](O)[C@]3(C)[C@H]3[C@@]4(O)OC[C@]32[C@@H]1[C@@H](C)[C@H]4O`, the TGI turned out to be 292 µM in the test with A549 NSCLC; 116 µM in the test on CAKI-1 renal; 50.3 µM in the test on EKVX NSCLC; 89.2 µM in the test with HCT-116 colon; 157 µM in the test on HOP-62 NSCLC; 52.5 µM with IGROV1 ovarian. Moreover, the TGI with KM12 colon was determined as 109 µM; in the test with M19-MEL melanoma, 45.5 µM; with MALME-3M melanoma, 34.1 µM; in the test on OVCAR-3 ovarian, 84.5 µM; in the test with OVCAR-4 ovarian, 185 µM; in the test on OVCAR-8 ovarian, 136 µM. In addition, the TGI stood at 24.4 µM in the test on RPMI-8226 leukemia, 118 µM with SK-MEL-2 melanoma and 30 µM with SK-MEL-5 melanoma.
Take `CCOC(=O)C1=NN(c2ccccc2)C2=CC(C)=NN(C)C(=S)N21`: the TGI in the test with A549 NSCLC, in the test on CAKI-1 renal, in the test with EKVX NSCLC, in the test on HCT-116 colon, with IGROV1 ovarian and with KM12 colon was above 100 µM each time. For the same molecule, the TGI with OVCAR-3 ovarian, with OVCAR-4 ovarian, in the test on OVCAR-8 ovarian, in the test on RPMI-8226 leukemia, in the test on SK-MEL-2 melanoma and in the test with SK-MEL-5 melanoma was above 100 µM each time.
As for `ClCc1ccc2ccc3ccc(CCl)nc3c2n1`, the TGI in the test with A549 NSCLC is above 42.2 µM; in the test on EKVX NSCLC, above 47.5 µM; in the test with HCT-116 colon it was 3.44 µM; in the test with HOP-62 NSCLC it was 15.4 µM; in the test on IGROV1 ovarian it was 3.48 µM; in the test on KM12 colon, 2.32 µM. In addition, the TGI is 3.97 µM in the test on M19-MEL melanoma; 3.69 µM in the test with MALME-3M melanoma; 4.81 µM in the test on OVCAR-3 ovarian; 14.5 µM with OVCAR-4 ovarian; 13.1 µM with RPMI-8226 leukemia; 4.81 µM in the test with SK-MEL-2 melanoma. The molecule further showed a TGI with SK-MEL-5 melanoma of 3.13 µM.
`COc1cc(C2c3cc4c(cc3[C@@H](NCCCN(C)C)[C@H]3COC(=O)C23)OCO4)cc(OC)c1O` (some centres not stated): the GI50 with A549 NSCLC is 0.03 µM; in the test with CAKI-1 renal it was 0.0599 µM and 0.227 µM; in the test on HOP-62 NSCLC it was 0.0933 µM and 0.271 µM; with OVCAR-8 ovarian it was 0.333 µM and 1.26 µM; in the test on SK-MEL-2 melanoma, 0.733 µM and 1.96 µM. Further, the TGI is 0.712 µM with A549 NSCLC; 0.351 µM and 0.952 µM with CAKI-1 renal; 1.58 µM and 1.29 µM in the test on EKVX NSCLC; 6.14 µM in the test on HCT-116 colon; 0.297 µM and 0.925 µM in the test with HOP-62 NSCLC; 2.03 µM and 4.03 µM in the test with IGROV1 ovarian. The TGI was 2.26 µM and 3.61 µM in the test on KM12 colon; 2.17 µM and 3.35 µM in the test with M19-MEL melanoma; 1.07 µM and 1.44 µM in the test on MALME-3M melanoma; 1.79 µM and 3.76 µM with OVCAR-3 ovarian; 1.2 µM and 5.09 µM in the test on OVCAR-8 ovarian; > 37.5 µM and 5.49 µM in the test with RPMI-8226 leukemia. Also, the TGI was 1.46 µM and 5.09 µM in the test with SK-MEL-2 melanoma; 0.825 µM and 1.15 µM with SK-MEL-5 melanoma.
